Measured values taken from article PMC12406196, “Anticoronavirus Activity of Uridine Glycoconjugates Containing a 1,2,3-Triazole Moiety” (Journal of Medicinal Chemistry, 2025).
pIC50: −log10 of the molar value. “Also recorded” adds a separate entry of the source. Like-named read-outs stand apart in the source and are kept apart here.

What was measured:
[1] = test system: murine hepatitis virus strain A59 (MHV); test: Reduction of MHV cytopathic effect (CPE) in LR7 cells, MTS/PMS readout; assay type: cell-based
Procedure: LR7 cells were seeded in a 96-well plate and cultured overnight. Next, the cells were infected with MHV at an MOI value of 0.01 in medium without FBS. Following 1 h of incubation, the medium containing the virus was collected and cells were covered with a medium supplemented with different concentrations (in triplicate) of the analyzed compounds or DMSO. 24 h p.i. cells viability was evaluated by CellTiter 96 AQueous nonradioactive cell proliferation assay (Promega) according to the manufacturer’s instruction.

[2] = MTS-based cell viability assay in LLC-Mk2 cells; conditions: Macaca mulatta, read-out: CC50 (HCoV-NL63 block)
Procedure: (§1) LR7, LLC-Mk2 or Vero cells were seeded in 96-well plates and cultured overnight. Next, the medium was changed to a new one supplemented with different concentrations (in triplicate) of analyzed compounds. Following the 2 days (LR7 and Vero) or 4 days (LLC-Mk-2) of incubation, CellTiter 96 AQueous nonradioactive cell proliferation assay (Promega) was performed according to the manufacturer’s instruction. The half-maximal cytotoxic concentration (CC50) was calculated as the concentration of a compound needed to reduce cell viability by 50% using GraphPad Prism software (version 5.01, GraphPad Software, San Diego, CA).

[3] = test system: HCoV-NL63 RNA synthesis; test: HCoV-NL63 RNA level in infected LLC-Mk2 cells, RT-PCR; assay type: cell-based, human coronavirus NL63; conditions: MOI 0.01, 96 h p.i.
Procedure: LR7 or LLC-Mk2 were cultured in 12-well plate overnight. Next, LR7 cells were infected with MHV at an MOI value of 1 for 1 h or LLC-Mk2 cells were infected with HCoV-NL63 at an MOI value of 0.01 for 2 h. Following removal of unbound virus, cells were cultured with medium supplemented with different concentrations of selected compounds. 8 h p.i. (MHV) or 96 h p.i. (HCoV-NL63) cells were collected and total RNA was isolated by CoV RNA kit (A&A Biotechnology, Poland) according to the manufacturer’s instruction. To evaluate levels of viral RNA in infected cells Qiagen One-Step RT-PCR reaction was performed. Following reverse transcription, the PCR reaction was carried out using primers: F: […], R: […] for amplification of a fragment of HCoV-NL63 genome (position: 26418–26960 bp NC_005831.2) and F: […] and R: […] for amplification of a fragment of MHV genome (position: 30341–30902 bp FJ647225.1). For internal control fragment of β-actin mRNA was reverse transcribed and amplified using primers For: […] and Rev: […].

[4] = test system: human coronavirus strain NL63 (HCoV-NL63); test: HCoV-NL63 titer in medium of infected LLC-Mk2 cells, foci-forming assay; assay type: cell-based
Procedure: LR7 or LLC-Mk2 cells were infected at a MOI of 0.01 with MHV and HCoV-NL63, respectively, and treated with selected compounds at a concentration ranging from 0 to 50 μM. Culture supernatants were collected 1 day (MHV) or 4 days (HCoV-NL63) after infection. […]
(§2) The half-maximum inhibitory concentration value (IC50) indicating the concentration of compound needed to reduce virus titer by 50% in comparison to the control, was evaluated by GraphPad software (version 5.01, GraphPad Software, San Diego, CA).

[5] = test system: murine hepatitis virus strain A59 (MHV); test: MHV titer in medium of infected LR7 cells, plaque assay; assay type: cell-based; conditions: for pIC50: Murine coronavirus
Procedure: LR7 or LLC-Mk2 cells were infected at a MOI of 0.01 with MHV and HCoV-NL63, respectively, and treated with selected compounds at a concentration ranging from 0 to 50 μM. Culture supernatants were collected 1 day (MHV) or 4 days (HCoV-NL63) after infection. Virus titer was determined by plaque assay.
as §2

[6] = MTS-based cell viability assay in Vero cells; conditions: African green monkey, 96 h per table footnote, read-out: CC50 (SARS-CoV-2 block)
Procedure: as §1

[7] = MTS-based cell viability assay in LR7 cells; design: species or system mouse; conditions: mouse, LR7 cells, 48 h, 0–100 μM, read-out: CC50 (MHV block)
Procedure: as §1

[8] = test system: LR7 cells; test: MTS-based cell viability assay in LR7 cells; design: species or system mouse; conditions: 50 μM, uninfected LR7 cells
Procedure: as §1

[9] = test system: human coronavirus strain NL63 (HCoV-NL63); test: HCoV-NL63 N protein expression in LLC-Mk2 cells, Western blot and densitometry; assay type: cell-based; conditions: 50 μM, MOI 0.01, 4 days p.i., Western blot/densitometry
Procedure: LLC-Mk2 monolayers grown in 24-well plates were infected with HCoV-NL63 at an MOI value of 0.01 for 2 h. Unbound virus was removed, and cells were cultured in medium supplemented with different concentrations of compounds. Four days postinfection, cells were collected and lysed in CellLyticM Cell Lysis Reagent (Sigma). Following the protein separation by SDS-PAGE and transfer to PVDF membranes, proteins were immunoblotted using specific mouse anti-N NL63 Abs (Eurofins, Spain) or rabbit anti-β-catenin Abs (Santa Cruz), followed by antimouse or antirabbit secondary antibodies conjugated with HRP. Proteins were visualized and analyzed by chemiluminescence using the UVITEC Cambridge Alliance MINI HD detection system. The densitometric analysis of cells treated with 50 μM dose of a panel of glycoconjugates was performed based on three biological replicates of N and β-catenin immunoblots. The N protein levels were expressed as a percentage relative to DMSO-treated infected cells, while β-catenin levels were expressed as a percentage relative to noninfected control cells. The data were presented as the ratio of N/β-catenin for each sample, normalized accordingly.

[10] = test system: SC-VLP entry into HEK-hACE2 cells; test: SARS-CoV-2 VLP (SC-VLP) internalization assay in HEK-hACE2 cells, luciferase; assay type: cell-based; conditions: 12.5 μM during SC-VLP production
[11] = test system: SARS-CoV-2; test: SARS-CoV-2 infectivity in supernatants of infected Vero cells, plaque assay; assay type: cell-based; conditions: read-out: IC50 (SARS-CoV-2)
Procedure: Vero cells were seeded in appropriate plates and allowed to reach an approximately 90% confluence. For infection, 200 μL of viral suspension containing 10^5 pfu (SARS-CoV-2 strain SARS-CoV-2/human/Czech Republic/951/2020) was added to each well and incubated for 2 h at 37 °C to allow virus adsorption. After the incubation, the viral medium was removed, and the wells were washed gently with phosphate-buffered saline (PBS). Test compounds were prepared in serial dilutions to final concentrations of 50, 25, 12.5, 6.25, 3.125, and 0 μM in the medium (DMEM containing 2% FBS). The compounds were added in quadruplicate to the infected cells. The plates were then incubated for 48 h at 37 °C. Following the 48 h treatment period, the supernatants were removed, and plaque assays in Vero E6 cells were performed to assess viral titers. Cells were fixed and stained 4 days after infection to visualize plaques, as described previously.
as §2

[12] = design: method as in not printed at the place; conditions: clinical use; ref not given; cited from earlier work
[13] = test system: murine hepatitis virus (MHV); design: method as in not printed at the place; conditions: tunicamycin treatment; ref not given; cited from earlier work

## CC(=O)OC[C@H]1O[C@@H](SCc2cn(C[C@H]3O[C@@H](n4ccc(=O)[nH]c4=O)[C@H](O[Si](C)(C)C(C)(C)C)[C@@H]3O[Si](C)(C)C(C)(C)C)nn2)[C@H](OC(C)=O)[C@@H](OC(C)=O)[C@H]1OC(C)=O [Compound 21, 2′,3′-di-O-tert-Butyldimethylsilyl-5′-deoxy-5′-[4-(2″,3″,4″,6″-tetra-O-acetyl-β-D-galactopyranosylthiomethyl)-1,2-3-triazol-1-yl]-uridine]
[1]; 50 μM, MOI 0.01, 24 h
  protection against MHV-induced CPE: significantly reduced cell death; also recorded: nearly eliminating CPE
[1]; MOI 0.01, 24 h p.i.
  concentration above which MHV-induced CPE was significantly reduced: above 6.25 μM
[2]
  CC50 at 96 h: 46.7 µM
[3]
  concentration that effectively suppressed HCoV-NL63 RNA synthesis: 12.5 µM
[4]; 96 h, virus titer released from LLC-Mk2 cells, MOI 0.01, 4 days p.i., read-out: IC50 (HCoV-NL63)
  pIC50: 5.24
[4]; LLC-MK2, read-out: IC50 (HCoV-NL63)
  pIC50: 5.25
[4]; dose-response 0–25 μM, LLC-Mk2 cells
  antiviral efficacy against HCoV-NL63 compared with compound 24: slightly lower activity
[5]; LR7 cells, 24 h p.i., plaque assay
  dose above which no virus was detectable (MHV titer): above 6.25 μM
[5]; LR7, read-out: IC50 (MHV)
  pIC50: 5.35
[5]; virus titer released from LR7 cells, MOI 0.01, 24 h p.i., plaque assay, read-out: IC50 (MHV)
  pIC50: 5.35
[6]
  CC50 at 96 h: > 100 µM
[7]
  CC50 at 48 h: 65.3 µM
[8]
  reduction of cell viability (cytotoxicity in uninfected cells): no detectable toxicity
[9]
  HCoV-NL63 N protein level: significantly reduced; also recorded: No N protein was detected
[10]
  reduction of SC-VLP entry compared with the control: 80%
[11]; Severe acute respiratory syndrome coronavirus 2, Vero
  pIC50: 4.72
[11]; Severe acute respiratory syndrome coronavirus 2, Vero cells, supernatant 48 h after infection, plaque assay
  pIC50: ~4.72

## CCCC(=O)O[C@H]1CN2CC[C@H](O)[C@@H]2[C@@H](O)[C@@H]1O [celgosivir]
[12]
  adverse effects in humans: diarrhea, weight loss, and flatulence

## CCCCN1C[C@H](O)[C@@H](O)[C@H](O)[C@H]1CO [miglustat]
[12]
  adverse effects in humans: diarrhea, weight loss, and flatulence

## tunicamycin
[13]
  effect on MHV viral titers: significantly reducing viral titers
